# Data taken from patent publication US9725463B2, “Substituted heterocyclic compounds as CRAC modulators” (LUPIN LIMITED, priority 2013, dated 2017).
# System: IL-2 secretion by Jurkat T cells
# Experiment: Inhibition of IL-2 secretion
# Type: cell-based
# Conditions: Homo sapiens; Jurkat T cells stimulated with PHA, 20 to 24 hours, IL-2 by ELISA
# Method: The CRAC channel modulatory activity of the compounds were thus evaluated by measuring the secretion of IL-2 by antigen stimulated T-cells in vitro. Alternatively, such activity can also be evaluated by assay methods known to one skilled in the art.
# Inhibition of IL-2 secretion: Jurkat T cells were seeded at a density of 0.5 to 1 million cells per well in RPMI medium. Test compounds from this invention were added to the cells at different concentrations. This was followed by the addition of PHA, a T cell mitogen after 10 minutes. The cells were then incubated for 20 to 24 hours in a CO2 incubator at 37° C. After incubation with the compounds, cells were centrifuged, the supernatant was collected and processed for ELISA to quantitate the amount of IL-2 secreted. A commercial ELISA kit (R&D Systems, Inc. Minneapolis, Minn., USA) was used to estimate the IL-2 concentrations. Amount of IL-2 secreted by cells stimulated with PHA was considered as a 100% maximal signal and the decrease in amount of IL-2 secreted by cells treated with the test compounds was expressed as percent inhibition of the maximal signal. The dose response data was analyzed using 4-parametric sigmoidal dose response (variable slope) curve-fit.
row,IC50,Structure (SMILES)
1,50 to 100 nM,"Cn1c(=O)oc2c(C3CC3)c(-c3ccc(NC(=O)c4ccccc4Cl)cc3)ccc21 [Example 103, 2-Chloro-N-(4-(7-cyclopropyl-3-methyl-2-oxo-2,3-dihydrobenzo[d]oxazol-6-yl)phenyl)benzamide]"
2,100 to 500 nM,"CN1C(=O)COc2cc(-c3ccc(C(=O)Nc4c(F)cncc4F)cc3)c(C3CC3)cc21 [Example 119, 4-(6-Cyclopropyl-4-methyl-3-oxo-3,4-dihydro-2H-benzo[b][1,4]oxazin-7-yl)-N-(3,5-difluoropyridin-4-yl)benzamide]"
3,< 25 nM,"CN1C(=O)COc2c1ccc(-c1ccc(NC(=O)c3c(F)cccc3F)cc1)c2C1CC1 [Example 107, N-(4-(8-Cyclopropyl-4-methyl-3-oxo-3,4-dihydro-2H-benzo[b][1,4]oxazin-7-yl)phenyl)-2,6-difluorobenzamide]"
4,25 to 50 nM,"CCc1cc2c(cc1-c1ccc(NC(=O)c3c(F)cccc3F)nc1)oc(=O)n2C [Example 69, N-(5-(5-Ethyl-3-methyl-2-oxo-2,3-dihydrobenzo [d]oxazol-6-yl)pyridin-2-yl)-2,6-difluoro benzamide]"
5,< 25 nM,"Cn1c(=O)oc2cc(-c3ccc(NC(=O)c4c(F)cccc4F)cc3)c(C3CC3)cc21 [Example 42, N-(4-(5-Cyclopropyl-3-methyl-2-oxo-2,3-dihydrobenzo[d]oxazol-6-yl)phenyl)-2,6-difluorobenzamide]"
6,25 to 50 nM,"CCc1cc2c(cc1-c1ccc(C(=O)Nc3c(F)cncc3F)cc1)oc(=O)n2C [Example 90, N-(3,5-Difluoropyridin-4-yl)-4-(5-ethyl-3-methyl-2-oxo-2,3-dihydrobenzo [d]oxazol-6-yl) benzamide]"
7,< 25 nM,"Cc1cc2oc(=O)n(C(F)F)c2cc1-c1ccc(NC(=O)c2c(F)cccc2F)cc1 [Example 32, N-(4-(3-(Difluoromethyl)-6-methyl-2-oxo-2,3-dihydrobenzo[d]oxazol-5-yl)phenyl)-2,6-difluorobenzamide]"
8,25 to 50 nM,"Cc1cc2oc(=O)n(CC3CC3)c2cc1-c1ccc(NC(=O)c2c(F)cccc2F)cc1 [Example 29, N-(4-(3-(Cyclopropylmethyl)-6-methyl-2-oxo-2,3-dihydrobenzo[d]oxazol-5-yl)phenyl)-2,6-difluorobenzamide]"
9,25 to 50 nM,"Cn1c(=O)oc2c(C3CC3)c(-c3ccc(NC(=O)c4c(F)cccc4F)cc3)ccc21 [Example 23, N-(4-(7-Cyclopropyl-3-methyl-2-oxo-2,3-dihydrobenzo[d]oxazol-6-yl)phenyl)-2,6-difluorobenzamide]"
10,100 to 500 nM,"Cn1c(=O)oc2c(C3CC3)c(-c3cnc(NC(=O)c4c(F)cccc4F)cn3)ccc21 [Example 26, N-(5-(7-Cyclopropyl-3-methyl-2-oxo-2,3-dihydrobenzo[d]oxazol-6-yl)pyrazin-2-yl)-2,6-difluorobenzamide]"
11,< 25 nM,"Cc1cc2oc(=O)n(C)c2cc1-c1ccc(NCc2c(F)cccc2F)cc1 [Example 55, 5-(4-((2,6-Difluorobenzyl)amino)phenyl)-3,6-dimethyl benzo[d] oxazol-2(3H)-one]"
12,< 25 nM,"CCc1cc2c(cc1-c1cnc(NC(=O)c3c(F)cccc3F)cn1)oc(=O)n2C [Example 70, N-(5-(5-Ethyl-3-methyl-2-oxo-2,3-dihydrobenzo [d]oxazol-6-yl)pyrazin-2-yl)-2,6-difluoro benzamide]"
13,25 to 50 nM,"Cc1cc2oc(=O)n(C)c2cc1-c1ccc(NC(=O)c2c(C)cccc2F)cc1 [Example 49, N-(4-(3,6-Dimethyl-2-oxo-2,3-dihydrobenzo [d]oxazol-5-yl)phenyl)-2-fluoro-6-methylbenzamide]"
14,50 to 100 nM,"Cc1cc2c(cc1-c1ccc(NCc3c(F)cccc3F)cc1)OCC(=O)N2C [Example 127, 7-(4-((2,6-Difluorobenzyl)amino)phenyl)-4,6-dimethyl-2H-benzo [b][1,4]oxazin-3(4H)-one]"
15,25 to 50 nM,"Cn1c(=O)oc2cc(C3CC3)c(-c3ccc(NC(=O)c4c(F)cccc4F)nc3)cc21 [Example 83, N-(5-(6-Cyclopropyl-3-methyl-2-oxo-2,3-dihydrobenzo [d]oxazol-5-yl)pyridin-2-yl)-2,6-difluorobenzamide]"
16,25 to 50 nM,"CCc1cc2c(cc1-c1ccc(NC(=O)c3c(F)cccc3F)cc1)N(C)C(=O)CO2 [Example 132, N-(4-(7-Ethyl-4-methyl-3-oxo-3,4-dihydro-2H-benzo[b][1,4]oxazin-6-yl)phenyl)-2,6-difluorobenzamide]"
17,50 to 100 nM,"CN1C(=O)COc2c1ccc(-c1cnc(NC(=O)c3c(F)cccc3F)cn1)c2C1CC1 [Example 109, N-(5-(8-Cyclopropyl-4-methyl-3-oxo-3,4-dihydro-2H-benzo[b][1,4]oxazin-7-yl)pyrazin-2-yl)-2,6-difluorobenzamide]"

row,IC50,Structure (SMILES)
1,< 25 nM,"Cc1cc2oc(=O)n(C)c2cc1-c1ccc(NC(=O)c2c(F)cccc2F)cc1 [Example 27, N-(4-(3,6-Dimethyl-2-oxo-2,3-dihydrobenzo [d]oxazol-5-yl)phenyl)-2,6-difluorobenzamide]"
2,< 25 nM,"CCc1nc2c(cc1-c1ccc(NC(=O)c3c(F)cccc3F)cc1)oc(=O)n2C [Example 37, N-(4-(5-Ethyl-3-methyl-2-oxo-2,3-dihydrooxazolo [4,5-b]pyridin-6-yl)phenyl)-2,6-difluorobenzamide]"
3,50 to 100 nM,"CCc1cc2oc(=O)n(C)c2cc1-c1ccc(NC(=O)c2c(F)cccc2F)cn1 [Example 81, N-(6-(6-Ethyl-3-methyl-2-oxo-2,3-dihydrobenzo [d]oxazol-5-yl)pyridin-3-yl)-2,6-difluoro benzamide]"
4,100 to 500 nM,"CCc1c(-c2cnc(NC(=O)c3c(F)cccc3F)cn2)cnc2c1oc(=O)n2C [Example 6, N-(5-(7-Ethyl-3-methyl-2-oxo-2,3-dihydrooxazolo [4,5-b]pyridin-6-yl)pyrazin-2-yl)-2,6-difluorobenzamide]"
5,25 to 50 nM,"Cc1c(-c2ccc(NC(=O)c3c(F)cccc3F)cc2)cnc2c1oc(=O)n2C [Example 1, N-(4-(3,7-Dimethyl-2-oxo-2,3-dihydrooxazolo[4,5-b]pyridin-6-yl)phenyl)-2,6-difluorobenzamide]"
6,< 25 nM,"CCc1cc2oc(=O)n(C)c2cc1-c1ccc(C(=O)Nc2c(F)cncc2F)cc1 [Example 92, N-(3,5-Difluoropyridin-4-yl)-4-(6-ethyl-3-methyl-2-oxo-2,3-dihydrobenzo [d]oxazol-5-yl) benzamide]"
7,25 to 50 nM,"Cc1cc2oc(=O)n(C)c2cc1-c1ccc(NC(=O)c2c(F)cccc2F)nc1 [Example 53, N-(5-(3,6-Dimethyl-2-oxo-2,3-dihydrobenzo [d]oxazol-5-yl)pyridin-2-yl)-2,6-difluoro benzamide]"
8,< 25 nM,"Cc1cc2oc(=O)n(C(F)F)c2cc1-c1ccc(NC(=O)c2c(F)cccc2F)nc1 [Example 77, N-(5-(3-(Difluoromethyl)-6-methyl-2-oxo-2,3-dihydrobenzo[d]oxazol-5-yl)pyridin-2-yl)-2,6 difluorobenzamide]"
9,100 to 500 nM,"CCc1cc2c(cc1-c1cnc(NC(=O)c3c(F)cccc3F)cn1)N(C)C(=O)CO2 [Example 133, N-(5-(7-Ethyl-4-methyl-3-oxo-3,4-dihydro-2H-benzo[b][1,4]oxazin-6-yl)pyrazin-2-yl)-2,6-difluorobenzamide]"
10,< 25 nM,"Cc1nc2c(cc1-c1ccc(NC(=O)c3c(F)cccc3F)cc1)oc(=O)n2C [Example 38, N-(4-(3,5-dimethyl-2-oxo-2,3-dihydrooxazolo [4,5-b]pyridin-6-yl)phenyl)-2,6-difluorobenzamide]"
11,< 25 nM,"CCc1cc2c(cc1-c1cnc(NC(=O)c3c(F)cccc3F)cn1)OCC(=O)N2C [Example 121, N-(5-(6-Ethyl-4-methyl-3-oxo-3,4-dihydro-2H-benzo[b][1,4]oxazin-7-yl)pyrazin-2-yl)-2,6-difluorobenzamide]"
12,25 to 50 nM,"CN1C(=O)COc2c1ncc(-c1ccc(NC(=O)c3c(F)cccc3F)cc1)c2C1CC1 [Example 112, N-(4-(8-Cyclopropyl-4-methyl-3-oxo-3,4-dihydro-2H-pyrido[3,2-b][1,4]oxazin-7-yl)phenyl)-2,6-difluorobenzamide]"
13,< 25 nM,"Cc1cc2c(cc1-c1ccc(NC(=O)c3c(F)cccc3F)cc1)OCC(=O)N2C [Example 123, N-(4-(4,6-Dimethyl-3-oxo-3,4-dihydro-2H-benzo[b][1,4]oxazin-7-yl)phenyl)-2,6-difluorobenzamide]"
14,< 25 nM,"CN1C(=O)COc2cc(-c3cnc(NC(=O)c4c(F)cccc4F)cn3)c(C3CC3)cc21 [Example 116, N-(5-(6-Cyclopropyl-4-methyl-3-oxo-3,4-dihydro-2H-benzo[b][1,4]oxazin-7-yl)pyrazin-2-yl)-2,6-difluorobenzamide]"
15,25 to 50 nM,"CCc1cc2c(cc1-c1ccc(C(=O)Nc3c(F)cccc3F)s1)oc(=O)n2C [Example 73, N-(2,6-Difluorophenyl)-5-(5-ethyl-3-methyl-2-oxo-2,3-dihydrobenzo [d]oxazol-6-yl) thiophene-2-carboxamide]"
16,< 25 nM,"CCc1cc2oc(=O)n(C)c2cc1-c1ccc(NC(=O)c2c(F)cccc2F)nc1 [Example 82, N-(5-(6-Ethyl-3-methyl-2-oxo-2,3-dihydrobenzo[d]oxazol-5-yl)pyridin-2-yl)-2,6-difluoro benzamide]"
17,50 to 100 nM,"Cn1c(=O)oc2cc(-c3cnc(NC(=O)c4c(F)cccc4F)cn3)c(C3CC3)cc21 [Example 72, N-(5-(5-Cyclopropyl-3-methyl-2-oxo-2,3-dihydrobenzo [d]oxazol-6-yl)pyrazin-2-yl)-2,6-difluorobenzamide]"
